# Source: patent US20060276464A1, “Diarylsulfone sulfonamides and use thereof” (Wyeth, priority 2005, published 2006)
# Where two headings read alike, the source gives them in different places.
# Key:
# [1] = molecular target: T1, SFRP-1 (Homo sapiens, UniProt Q8N474); test: Fluorescence polarization binding assay (competitive displacement of a probe compound from SFRP-1); conditions: fluorescence anisotropy, 45 nM SFRP-1, 20 nM probe;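 note: test compound competes with a fluorescent probe held by SFRP-1, seen as a drop in probe anisotropy after incubation in darkness, with anisotropy as function of rising compound dose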
# T1 sequence (Q8N474 32-314): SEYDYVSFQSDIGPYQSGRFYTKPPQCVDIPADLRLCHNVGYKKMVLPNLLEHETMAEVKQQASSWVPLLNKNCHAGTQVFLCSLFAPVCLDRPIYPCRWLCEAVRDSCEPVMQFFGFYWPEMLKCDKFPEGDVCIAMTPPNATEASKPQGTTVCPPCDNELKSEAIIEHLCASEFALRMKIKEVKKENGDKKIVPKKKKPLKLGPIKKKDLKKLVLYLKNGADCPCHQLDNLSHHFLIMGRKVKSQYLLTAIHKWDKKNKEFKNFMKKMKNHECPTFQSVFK
# [2] = molecular target: T1, SFRP-1; test: Cell-based assay for in vitro measurement of SFRP-1/SARP2 antagonist activity (U2OS cells co-transfected with 16x TCF-tk-Luciferase reporter, Wnt and hSFRP-1); conditions: for fold induction at 10 µM / fold induction at 15 µM: U2OS; for fold induction at 10 µM: read-out: Fold Induction with SFRP-1, U2OS cells, single dose 10 μM, luciferase reporter, fold induction over SFRP-1 control;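 for all read-outs here: U2OS cells co-transfected with a TCF-tk luciferase reporter, a Wnt vector, hSFRP-1 or empty vector and CMV-βgal, luciferase luminescence read in cell lysates alongside βgal activity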
# [3] = read-out: Fold Induction with SFRP-1, Conc 15 μM, single dose, luciferase reporter, fold induction over SFRP-1 control, cells with SFRP-1
# [4] = read-out: Fold Induction without SFRP-1, Conc 15 μM, single dose, luciferase reporter, cells without SFRP-1 (specificity control)
# [5] = read-out: Fold Induction with SFRP-1, Conc 15 μM, with SFRP-1, fold induction over SFRP-1 control, single dose
# [6] = read-out: Fold Induction without SFRP-1, Conc 15 μM, without SFRP-1, single dose
IC50 [1] [nM],EC50 [2] [nM],fold induction at 10 µM [2],"fold induction at 15 µM [2, 3]","fold induction at 15 µM [2, 4]","fold induction at 15 µM [2, 5]","fold induction at 15 µM [2, 6]",SMILES
2400,9030,2.4,–,–,–,–,"N#Cc1ccc(C(=O)N2CCC(NS(=O)(=O)c3cc(S(=O)(=O)c4ccccc4)ccc3Cl)CC2)cc1 [Example 657, 2-chloro-N-[1-(4-cyanobenzoyl)piperidin-4-yl]-5-(phenylsulfonyl)benzenesulfonamide]"
4000,–,–,2.8,1.1,–,–,"CC(C)c1ccc(S(=O)(=O)c2ccc(F)cc2)cc1S(=O)(=O)NCC1CCCO1 (stereo not drawn) [Example 532, 5-[(4-fluorophenyl)sulfonyl]-2-isopropyl-N-(tetrahydrofuran-2-ylmethyl)benzenesulfonamide]"
10000,–,–,3.4,1.1,–,–,"O=C(N1CCOCC1)N1CCC(NS(=O)(=O)c2cc(S(=O)(=O)c3ccccc3)ccc2Cl)CC1 [Example 650, 2-chloro-N-[1-(morpholin-4-ylcarbonyl)piperidin-4-yl]-5-(phenylsulfonyl)benzenesulfonamide]"
160,1200,4.8,–,–,–,–,"COc1ccccc1C(=O)N1CCC(NS(=O)(=O)c2cc(S(=O)(=O)c3ccccc3)ccc2C(F)(F)F)CC1 [Example 703, N-[1-(2-methoxybenzoyl)piperidin-4-yl]-5-(phenylsulfonyl)-2-(trifluoromethyl)benzenesulfonamide]"
5000,–,–,2.9,1.1,–,–,"CC(C)(C)C(=O)N1CCC(NS(=O)(=O)c2cc(S(=O)(=O)c3ccccc3)ccc2Cl)CC1 [Example 648, 2-chloro-N-[1-(2,2-dimethylpropanoyl)piperidin-4-yl]-5-(phenylsulfonyl)benzenesulfonamide]"
400,738,3.6,–,–,–,–,"O=C(c1ccccc1)c1ccc(C(=O)N2CCC(NS(=O)(=O)c3cc(S(=O)(=O)c4ccccc4)ccc3C(F)(F)F)CC2)cc1 [Example 800, N-[1-(4-benzoylbenzoyl)piperidin-4-yl]-5-(phenylsulfonyl)-2-(trifluoromethyl)benzenesulfonamide]"
4000,3320,2.9,–,–,–,–,"CNCCCNS(=O)(=O)c1cc(S(=O)(=O)c2ccccc2)ccc1C(F)(F)F [Example 929, N-[3-(methylamino)propyl]-5-(phenylsulfonyl)-2-(trifluoromethyl)benzenesulfonamide]"
100,534,3.3,–,–,–,–,"CC(C)(C)OC(=O)N1CC[C@H](NS(=O)(=O)c2cc(S(=O)(=O)c3ccccc3)ccc2C(F)(F)F)C1 [Example 794, tert-butyl(3S)-3-({[5-(phenylsulfonyl)-2-(trifluoromethyl)phenyl]sulfonyl}amino)pyrrolidine-1-carboxylate]"
3000,–,–,2.8,1.2,–,–,"CCCc1ccc(S(=O)(=O)c2ccc(F)cc2)cc1S(=O)(=O)NC1CCCC1 [Example 563, N-Cyclopentyl-5-[(4-fluorophenyl)sulfonyl]-2-propylbenzenesulfonamide]"
60,193,–,–,–,–,–,"CC(=O)N1CC[C@@H](C(=O)N2CCC(NS(=O)(=O)c3cc(S(=O)(=O)c4ccccc4)ccc3C(F)(F)F)CC2)C1 [Example 1064, N-(1-{[(3R)-1-acetylpyrrolidin-3-yl]carbonyl}piperidin-4-yl)-5-(phenylsulfonyl)-2-(trifluoromethyl)benzenesulfonamide]"
700,–,–,3,1,–,–,"CC(C)c1ccc(S(=O)(=O)c2ccc(F)cc2)cc1S(=O)(=O)NC1CCN(C(=O)C2CC2)CC1 [Example 530, N-[1-(cyclopropylcarbonyl)piperidin-4-yl]-5-[(4-fluorophenyl)sulfonyl]-2-isopropylbenzenesulfonamide]"
1500,–,–,–,–,2.4,1.1,"Cc1ccc(S(=O)(=O)c2ccccc2)cc1S(=O)(=O)NC1CCN(C(=O)c2ccc3c(c2)OCO3)CC1 [Example 484, N-[1-(1,3-benzodioxol-5-ylcarbonyl)piperidin-4-yl]-2-methyl-5-(phenylsulfonyl)benzenesulfonamide]"
2800,–,–,–,–,2.5,1.2,"CCOC(=O)N1CCC(NS(=O)(=O)c2cc(S(=O)(=O)c3ccccc3)ccc2C)CC1 [Example 425, ethyl 4-({[2-methyl-5-(phenylsulfonyl)phenyl]sulfonyl}amino)piperidine-1-carboxylate]"
30,257,3.9,–,–,–,–,"O=C(O)c1ccc(CCNS(=O)(=O)c2cc(S(=O)(=O)c3ccccc3)ccc2C(F)(F)F)cc1 [Example 877, 4-[2-({[5-(phenylsulfonyl)-2-(trifluoromethyl)phenyl]sulfonyl}amino)ethyl]benzoic acid]"
900,1340,2.9,–,–,–,–,"COC(=O)CN(C)CCNS(=O)(=O)c1cc(S(=O)(=O)c2ccccc2)ccc1C(F)(F)F [Example 906, methyl N-methyl-N-[2-({[5-(phenylsulfonyl)-2-(trifluoromethyl)phenyl]sulfonyl}amino)ethyl]glycinate]"
30,386,–,–,–,–,–,"O=C(O)c1ccc(S(=O)(=O)N2CCC[C@H]2C(=O)N2CCC(NS(=O)(=O)c3cc(S(=O)(=O)c4ccccc4)ccc3C(F)(F)F)CC2)cc1 [Example 1080, 4-[((2S)-2-{[4-({[5-(phenylsulfonyl)-2-(trifluoromethyl)phenyl]sulfonyl}amino)piperidin-1-yl]carbonyl}pyrrolidin-1-yl)sulfonyl]benzoic acid]"
13000,–,–,–,–,2.6,0.9,"Cc1ccc(S(=O)(=O)c2ccc(F)cc2)cc1S(=O)(=O)NCCN1CCOCC1 [Example 169, 5-[(4-fluorophenyl)sulfonyl]-2-methyl-N-(2-morpholin-4-ylethyl)benzenesulfonamide]"
1700,–,–,2.6,1.1,–,–,"CCCc1ccc(S(=O)(=O)c2ccccc2)cc1S(=O)(=O)NC1CCCC1 [Example 554, N-Cyclopentyl-5-(phenylsulfonyl)-2-propylbenzenesulfonamide]"
190,754,3.7,–,–,–,–,"O=S(=O)(NCC1CCOCC1)c1cc(S(=O)(=O)c2ccccc2)ccc1C(F)(F)F [Example 765, 5-(phenylsulfonyl)-N-(tetrahydro-2H-pyran-4-ylmethyl)-2-(trifluoromethyl)benzenesulfonamide]"
110,–,10.4,–,–,–,–,"O=S(=O)(NC1Cc2ccc(Br)cc2C1)c1cc(S(=O)(=O)c2ccccc2)ccc1C(F)(F)F (stereo not drawn) [Example 1094, N-(5-bromo-2,3-dihydro-1H-inden-2-yl)-5-(phenylsulfonyl)-2-(trifluoromethyl)benzenesulfonamide]"
80,140,3.8,–,–,–,–,"CC(C)(C)OC(=O)N1CC[C@@H](NS(=O)(=O)c2cc(S(=O)(=O)c3ccccc3)ccc2C(F)(F)F)C1 [Example 795, tert-butyl(3R)-3-({[5-(phenylsulfonyl)-2-(trifluoromethyl)phenyl]sulfonyl}amino)pyrrolidine-1-carboxylate]"
1300,–,4,–,–,–,–,"CN(C)c1ccccc1S(=O)(=O)c1ccc(C(F)(F)F)c(S(=O)(=O)NC2CCNCC2)c1 [Example 862, 5-{[2-(dimethylamino)phenyl]sulfonyl}-N-piperidin-4-yl-2-(trifluoromethyl)benzenesulfonamide]"
400,853,–,–,–,–,–,"CN(CCNS(=O)(=O)c1cc(S(=O)(=O)c2ccccc2)ccc1C(F)(F)F)C(=O)NC1CCN(C(=O)CCC(=O)O)CC1 [Example 980, 4-{4-[({methyl[2-({[5-(phenylsulfonyl)-2-(trifluoromethyl)phenyl]sulfonyl}amino)ethyl]amino}carbonyl)amino]piperidin-1-yl}-4-oxobutanoic acid]"
1400,–,–,1.9,1,–,–,"Cc1ccc(S(=O)(=O)c2ccccc2)cc1S(=O)(=O)NC1CCN(C(=O)c2ccc3ccccc3c2)CC1 [Example 496, 2-methyl-N-[1-(2-naphthoyl)piperidin-4-yl]-5-(phenylsulfonyl)benzenesulfonamide]"
700,–,–,1.9,1.2,–,–,"Cc1c(Br)cccc1S(=O)(=O)c1ccc(C(C)C)c(S(=O)(=O)NCCc2ccccn2)c1 [Example 577, 5-[(3-bromo-2-methylphenyl)sulfonyl]-2-isopropyl-N-(2-pyridin-2-ylethyl)benzenesulfonamide]"

SMILES,IC50 [1] [nM],EC50 [2] [nM],fold induction at 10 µM [2],"fold induction at 15 µM [2, 3]","fold induction at 15 µM [2, 4]","fold induction at 15 µM [2, 5]","fold induction at 15 µM [2, 6]"
"COP(=O)(Cc1ccc(C(=O)N(C)CCNS(=O)(=O)c2cc(S(=O)(=O)c3ccccc3)ccc2C(F)(F)F)cc1)OC [Example 1006, dimethyl [4-({methyl[2-({[5-(phenylsulfonyl)-2-(trifluoromethyl)phenyl]sulfonyl}amino)ethyl]amino}carbonyl)benzyl]phosphonate]",180,8160,–,–,–,–,–
